Source: patent publication US10106551B2, “Monothiol mucolytic agents” (PARION SCIENCES, INC., priority 2015, dated 2018)
Structures can show the parent of a compound that is named as a salt.

What was measured:
Assay type in all cases: biochemical
[1] = Pro-Drug DTNB assay with or without esterase; details: for Reduction Without Esterase / Reduction With Esterase: 22.5 μM prodrug, 100 μM DTNB; for Reduction Without Esterase: pH 7.5, no enzyme; for Reduction With Esterase: pH 7.5, porcine liver esterase
Description: The present invention provides a series of mucolytic pro-drugs (see R^6=other than H) that are activated by common enzymes that are present in the extracellular milieu (e.g., nucelotidases, phosphatases, and esterases). As a proof-of-concept, the reducing kinetics of the pro-drug compound 46 in the presence or absence of an activating esterase were tested.
This assay was designed to determine whether prodrug caps added on to our monothiol mucolytic compounds can be cleaved from the molecule. If so, the outcome would be an “active” compound that is able to reduce the S—S bond in DTNB. Similar to the activity concentration version of the DTNB assay described above, monothiol prodrugs were mixed at a final concentration of 22.5 μM with excess DTNB (100 μM final) in 1 mL 50 mM Tris-HCl buffer (pH 7.5) and maximum Abs412 was measured. In the absence of a purified hydrolytic enzyme (e.g. porcine liver esterase; Sigma), the amount of DTNB cleavage observed is an indicator for stability of the cap on the prodrug compound (i.e. if the prodrug remains intact in solution the Abs412=0). Next, 5 uL of esterase (bought as an ammonium sulfate suspension that is subsequently centrifuged to isolate the esterase and then dissolved in reaction buffer prior to assaying) is combined with excess DTNB (100 μM final) and 22.5 μM pro-drug in 1 mL 50 mM Tris-HCl buffer (pH 7.5). Cleavage of the prodrug cap can be visualized in real time via DTNB cleavage at Abs412 by the esterase-liberated monothiol molecule.

[2] = DTNB assay: rate of S-S bond reduction; details: pH 6; 22.5 μM reducing agent, 45 μM DTNB, 50 mM Tris-HCl
Source text: Thiol-containing compounds, such as the monothiol mucolytic agents described in this patent, can react with DTNB (5,5-Dithiobis(2-nitrobenzoic acid)) resulting in the cleavage of its single S—S bond. The DTNB assay serves a dual purpose in our analysis of monothiol compounds, as it can (1) be used to determine the “active concentration” of the mucolytic compounds (what amount of the compound in a reaction is able to cleave S—S bonds) and (2) to assess the rate that the compound can cleave S—S bonds. When cleaved, the resulting compound, NTB (2-nitro-5-thiobenzoate), is a colored product that is measured spectrophotometrically at an absorbance of 412 nm (Abs412). Using the molar extinction coefficient of NTB and measured maximum Abs412, the molar amount of DTNB that reacted with our mucolytic agents can be calculated. Monothiol mucolytic compounds react at a 1:1 stoichiometric ratio with DTNB (i.e. 1 mole of NTB is produced when 1 mole of DTNB is reacted with 1 mole of a monothiol reducing agent). To define the activity concentration of a compound, a final concentration of 22.5 μM mucolytic reducing agent was combined with an excess of DTNB (100 μM) in 1 mL 50 mM Tris-HCl buffer (pH 7.5). Maximum Abs412 was measured and then utilized to calculate the activity concentration. If observed activity concentrations differed from expected activity concentrations by more than 5%, the amount of the compound added to each reaction was accordingly adjusted to kinetically test the reducing rate in the next step. To determine rate of mucolytic reducing activity, 22.5 μM active reducing agent is combined with 45 μM DTNB in 1 mL 50 mM Tris-HCl buffer over a pH range (6.0-7.5). Abs412 is recorded in real time upon addition of the compound and rates were calculated using 2nd order kinetic parameters.

[3] = biological target: T1, Muc5B (Homo sapiens, UniProt Q9HC84); test: Mucin agarose gel western blot (saliva / mucus samples); details: for MUC5B reduction: human mucus samples
T1 construct: Various mucin-containing substrates (e.g. saliva, harvested HBE mucus, and disease sputum) treated with our monothiol mucolytic compounds; from tissue; host or cells: saliva; harvested HBE mucus; disease sputum
Description: Various mucin-containing substrates (e.g. saliva, harvested HBE mucus, and disease sputum) treated with our monothiol mucolytic compounds are quenched upon completion of the treatment period with a 10-fold excess of N-ethylmaleimide in order to alkylate any remaining active compound and to prevent further mucin reduction. A 10× concentrated sample loading buffer is diluted into each sample (1×TAE/5% glycerol/0.1% SDS/Bromophenol Blue). Samples ([…]) were analyzed by electrophoresis on 0.9% agarose gels using a buffer system consisting of 1×TAE/0.1% SDS. The agarose gel was soaked for 15 min in 4×SSC (0.6 M NaCl, 60 mM Tri-sodium citrate dehydrate) containing 10 mM DTT before transferring the samples from the gel onto a nitrocellulose membrane by vacuum blotter. Unreduced and reduced Muc5B were visualized on a LiCor Odyssey imaging detection system using a polyclonal antibody directed towards Muc5B.

| Structure (SMILES) | Reduction Without Esterase [1] | Reduction With Esterase [1] | DTNB reduction rate [2] [M⁻¹ s⁻¹] | other results |
| --- | --- | --- | --- | --- |
| Cl.O=C(SCc1cccc(OCCN(C[C@H](O)[C@@H](O)[C@H](O)[C@H](O)CO)C[C@H](O)[C@@H](O)[C@H](O)[C@H](O)CO)c1)c1ccco1 [Compound 9, S-3-(2-(bis((2S,3R,4R,5R)-2,3,4,5,6-pentahydroxyhexyl)amino)ethoxy)benzyl furan-2-carbothioate Hydrochloride] | No | Yes |  |  |
| Cl.O=C(SCc1cccc(OCCN(C[C@@H](O)[C@@H](O)[C@H](O)[C@H](O)CO)C[C@@H](O)[C@@H](O)[C@H](O)[C@H](O)CO)c1)c1ccco1 [Compound 10, S-3-(2-(bis((2R,3R,4R,5R)-2,3,4,5,6-pentahydroxyhexyl)amino)ethoxy)benzylfuran-2-carbothioate Hydrochloride] | No | Yes |  |  |
| CC(C)C(=O)SCc1cccc(OCCN(C[C@H](O)[C@@H](O)[C@H](O)[C@H](O)CO)C[C@H](O)[C@@H](O)[C@H](O)[C@H](O)CO)c1 [Compound 14, S-3-(2-(bis((2S,3R,4R,5R)-2,3,4,5,6-entahydroxyhexyl)amino)ethoxy)benzyl 2-methylpropanethioate Hydrochloride] | No | Yes |  |  |
| CC(C)C(=O)SCc1cccc(OCCN(C[C@@H](O)[C@@H](O)[C@H](O)[C@H](O)CO)C[C@@H](O)[C@@H](O)[C@H](O)[C@H](O)CO)c1.Cl [Compound 15a, S-3-(2-(bis((2R,3R,4R,5R)-2,3,4,5,6-pentahydroxyhexyl)amino)ethoxy)benzyl 2-methylpropanethioate Hydrochloride] | No | Yes |  |  |
| CC(=O)SCc1cccc(OCCN(C[C@H](O)[C@@H](O)[C@H](O)[C@H](O)CO)C[C@H](O)[C@@H](O)[C@H](O)[C@H](O)CO)c1.Cl [Compound 17, S-3-(2-(bis((2S,3R,4R,5R)-2,3,4,5,6-pentahydroxyhexyl)amino)ethoxy)benzyl Ethanethioate Hydrochloride] | No | Yes |  |  |
| CC(=O)SCc1cccc(OCCN(C[C@@H](O)[C@@H](O)[C@H](O)[C@H](O)CO)C[C@@H](O)[C@@H](O)[C@H](O)[C@H](O)CO)c1 [Compound 18, S-3-(2-(bis((2R,3R,4R,5R)-2,3,4,5,6-pentahydroxyhexyl)amino)ethoxy)benzyl Ethanethioate] | No | Yes |  |  |
| Cl.OC[C@@H](O)[C@@H](O)[C@H](O)[C@@H](O)CN(CCOc1cccc(CS)c1)C[C@H](O)[C@@H](O)[C@H](O)[C@H](O)CO [Compound 19, (2R,2′R,3R,3′R,4R,4′R,5S,5′S)-6,6′-((2-(3-(mercaptomethyl)phenoxy)ethyl)azanediyl)bis(hexane-1,2,3,4,5-pentaol) Hydrochloride] |  |  | 182.52 |  |
| Cl.OC[C@@H](O)[C@@H](O)[C@H](O)[C@H](O)CN(CCOc1cccc(CS)c1)C[C@@H](O)[C@@H](O)[C@H](O)[C@H](O)CO [Compound 20, (2R,2′R,3R,3′R,4R,4′R,5R,5′R)-6,6′-((2-(3-(mercaptomethyl)phenoxy)ethyl)azanediyl)bis(hexane-1,2,3,4,5-pentaol) Hydrochloride] |  |  | 307.08 |  |
| CCC(=O)SCc1cccc(OCCN(C[C@H](O)[C@@H](O)[C@H](O)[C@H](O)CO)C[C@H](O)[C@@H](O)[C@H](O)[C@H](O)CO)c1.Cl [Compound 24, S-3-(2-(bis((2S,3R,4R,5R)-2,3,4,5,6-pentahydroxyhexyl)amino)ethoxy)benzyl Propanethioate Hydrochloride] | No | Yes |  |  |
| CCC(=O)SCc1cccc(OCCN(C[C@@H](O)[C@@H](O)[C@H](O)[C@H](O)CO)C[C@@H](O)[C@@H](O)[C@H](O)[C@H](O)CO)c1.Cl [Compound 25, S-3-(2-(bis((2R,3R,4R,5R)-2,3,4,5,6-pentahydroxyhexyl)amino)ethoxy)benzyl Propanethioate Hydrochloride] | No | Yes |  |  |
| CC(=O)SCc1ccc(OCCCCCCN(C[C@H](O)[C@@H](O)[C@H](O)[C@H](O)CO)C[C@H](O)[C@@H](O)[C@H](O)[C@H](O)CO)cc1.Cl [Compound 46, S-4-((6-(bis((2S,3R,4R,5R)-2,3,4,5,6-pentahydroxyhexyl)amino)hexyl)oxy)benzyl Ethanethioate Hydrochloride] | No | Yes |  | reduction of disulfide bonds by pro-drug alone ([1]; absence of activating esterase): does not reduce disulfide; reaction rates on addition of activating enzyme ([1]; presence of activating esterase): concentration dependent increase in reaction rates; MUC5B reduction [3]: reduce MUC5B |
| Cl.OC[C@@H](O)[C@@H](O)[C@H](O)[C@@H](O)CN(CCCCCCOc1ccc(CS)cc1)C[C@H](O)[C@@H](O)[C@H](O)[C@H](O)CO [Compound 47, (2R,2′R,3R,3′R,4R,4′R,5S,5′S)-6,6′-((6-(4-(mercaptomethyl)phenoxy)hexyl)azanediyl)bis(hexane-1,2,3,4,5-pentaol) Hydrochloride] |  |  | 211.3 | time to fully reduce all available disulfides ([1]; parent molecule, same conditions as pro-drug test): < 10 s; reducing capacity relative to 76 (Muc5B) ([3]; FIG. 3): retain the reducing capacity of 76; MUC5B reduction [3]: reduce MUC5B |
| NCCCCCCOc1ccc(CS)cc1 [Compound 48] |  |  | 190.8 |  |
| Cl.OC[C@@H](O)[C@@H](O)[C@H](O)[C@H](O)CN(CCOc1ccc(CS)cc1)C[C@@H](O)[C@@H](O)[C@H](O)[C@H](O)CO [Compound 58, (2R,2′R,3R,3′R,4R,4′R,5R,5′R)-6,6′-((2-(4-(mercaptomethyl)phenoxy)ethyl)azanediyl)bis(hexane-1,2,3,4,5-pentaol) Hydrochloride] |  |  | 258.31 |  |
| CC(C)C(=O)SCc1ccc(OCCN(C[C@@H](O)[C@@H](O)[C@H](O)[C@H](O)CO)C[C@@H](O)[C@@H](O)[C@H](O)[C@H](O)CO)cc1.Cl [Compound 59, S-4-(2-(bis((2R,3R,4R,5R)-2,3,4,5,6-pentahydroxyhexyl)amino)ethoxy)benzyl 2-methylpropanethioate Hydrochloride] | No | Yes |  |  |
| CO[C@@H]1OC(CS)[C@H](O)C(O)C1O (some centres unmarked) [compound 95, reference compound] |  |  |  | Muc5b reduction ([3]; FIG. 4, 30 mM): partial Muc5b reduction |
